Laboratory results as given in PubChem BioAssay AID179 (DTP/NCI, 2004).
Activity calls are given as the source filed them.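 How the source made its calls: active means compounds giving half or more protection of infected cells from virus-caused growth loss, again on retest; inactive means the rest.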 Where a SMILES comes first, the peptide text is derived from it. [ ]: non-standard residue; d: D form. The star is where a group is joined. ξ: configuration not given here. NMeF = CN[C@@H](Cc1ccccc1)C(=O)O; NMeV = CN[C@H](C(=O)O)C(C)C; ξNMeN = CNC(CC(N)=O)C(=O)O; NMeA = CN[C@@H](C)C(=O)O; ξNMeV = CNC(C(=O)O)C(C)C; Boc = CC(C)(C)OC(=O)*

Tested on: CEM cells HIV-1 protection, formazan growth assay
Assay: NCI AIDS Antiviral Assay
Details: for IC50: measured here: growth of uninfected CEM cells
Procedure, shortened: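 Human CEM cells, uninfected and HIV-1-infected, exposed to five drug concentrations; growth measured by soluble formazan assay and scored as percent protection from infection, with protecting compounds retested.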

| Compound | EC50 | IC50 | outcome |
| --- | --- | --- | --- |
| Oc1cc(-n2cccn2)c(O)cc1-n1cccn1 | > 77.6 µM | 14.1 µM |  |
| O=[N+]([O-])c1cccc2nnccc12 | > 200 µM | 22.9 µM |  |
| CC1=Nc2cc(C)c(C)cc2NC(=O)C1 | > 200 µM | > 200 µM |  |
| Cc1cc2ccccc2n1S(=O)(=O)c1ccccc1 | > 95.5 µM | > 95.5 µM |  |
| COc1cc(C2c3cc(O)c(OC)cc3C[C@@H]3C(=O)OCC23)ccc1O (stereo not given in full) | > 263 µM | > 263 µM |  |
| NC1=NCC(c2ccccn2)C1c1ccc(F)cc1 (stereo not given) |  |  | inactive |
| C(=C\c1nc2ccccc2s1)/c1ccc2c(c1)OCO2 | > 6.76 µM | > 6.76 µM |  |
| COC(=O)[C@H](C)N(C)C(=O)C(CC(N)=O)N(C)C(=O)[C@H](Cc1ccccc1)N(C)C(=O)[C@@H]1CCCN1C(=O)[C@H](C(C)C)N(C)C(=O)C(C(C)C)N(C)C(=O)[C@@H](NC(=O)OC(C)(C)C)C(C)C (stereo not given in full) (Boc-V[ξNMeV][NMeV]P[NMeF][ξNMeN][NMeA]-OMe) | > 53.7 µM | 50.1 µM |  |
| CC1NCCc2c1[nH]c1cc(O)ccc21 (stereo not given) | > 1050 µM | 158 µM |  |
| CCOC(=O)/C(=C/c1ccc(C(=O)OC)cc1)N(CC)CC | > 427 µM | 67.6 µM |  |
| O=S(=O)(c1ccc(Br)cc1)n1c2ccc(Br)cc2c2nc3ccccc3nc21 | > 100 µM | > 100 µM |  |
| O=C(O)c1ccc(CSc2ccccc2)c([N+](=O)[O-])c1 | > 631 µM | 245 µM |  |
| CC(C)C1=C[C@H](c2ccccc2)c2ccccc2C1C(C#N)(C#N)C(C)C (stereo not given in full) | > 1.48 µM | > 1.48 µM |  |
| S=C(N1CC1)N1CC1 | > 200 µM | 42.7 µM |  |
| COc1ccc(/C=C/c2ccnc3ccccc23)cc1 | 0.0631 µM | 14.1 µM |  |
| CC1CCN(C(C)(C)C)P(=O)(Cc2ccccc2)O1 (stereo not given) |  |  | inactive |
| Nc1c(-c2nc3ccccc3s2)c2ccc([N+](=O)[O-])cc2c(=O)n1-c1cccc(C(=O)O)c1 | 7.76 µM | 37.2 µM |  |
| c1nc2cscc2c2cscc12 |  |  | inactive |
| CC1=C\[C@@H](O)CC(=O)Cc2nc(co2)C(=O)N2CCC=C2C(=O)O[C@H](C(C)C)[C@H](C)/C=C/C(=O)NC\C=C\1 | > 9.77 µM | > 9.77 µM |  |
| CCC(=O)NC(OCC1(CC)COC1)(C(F)(F)F)C(F)(F)F | > 200 µM | > 200 µM |  |
| CC(C)[Si](OC1=C(C(=O)N(C)c2cccc(Cl)c2)CCCC1)(C(C)C)C(C)C | > 200 µM | 9.77 µM |  |
| COc1ccc2cc1Oc1ccc(cc1)CC1c3c(cc4c(c3Oc3cc5c(cc3OC)CCN(C)C5C2)OCO4)CCN1C (stereo not given) |  |  | inactive |

| Compound | EC50 | IC50 | outcome |
| --- | --- | --- | --- |
| C=C(C)S(=O)(=O)c1ccccc1 |  |  | inactive |
| C/C(=N\O)[C@H]1CC[C@H]2[C@@H]3CCC4=C/C(=N/O)CC[C@]4(C)[C@H]3C(=O)C[C@]12C | > 200 µM | 39.8 µM |  |
| C=CCN1CCC(C(=O)CC)(c2ccccc2)CC1 | > 355 µM | 166 µM |  |
| C=C1C(=O)OC2C1CC1OC2C(C)CCC/C(C)=C\CCC1(C)O (stereo not given) | > 525 µM | 17 µM |  |
| CC(C)c1ccc2nc3ccc(C(=O)NCCN(C)C)cn3c(=O)c2c1 | > 200 µM | 12.6 µM |  |
| CC(C)=CCN1CCCn2c(=S)[nH]c3cccc(c32)C1=O | > 200 µM | > 200 µM |  |
| C[C@H]1Oc2c3c(c4ccc(=O)oc4c2C(=O)[C@@H]1C)OC(C)(C)C=C3 | > 200 µM | > 200 µM |  |
| CN(C)CC1CCC/C(=C\c2ccccc2)C1=O (stereo not given) | > 200 µM | 0.708 µM |  |
| CC12O[C@]3([C@H](C(=O)N4CCOC43C)[C@H]1Cl)[C@H]1O[C@H]12 (stereo not given in full) |  |  | inactive |
| CCC(=O)C[P+](c1ccccc1)(c1ccccc1)c1ccccc1 | > 200 µM | 69.2 µM |  |
| COP(=O)(OC)OC1C(=O)NC(=O)NC1=O | > 200 µM | > 200 µM |  |
| COc1ccc(NC(=S)/C(=C(\[O-])c2ccc([N+](=O)[O-])cc2)[n+]2ccc(C(C)C)cc2)cc1 | > 200 µM | > 100 µM |  |
| COc1ccc(-c2cc3ccccc3[nH]c2=O)cc1OC |  |  | inactive |
| O=c1[nH]c(=O)n(C2CC(O)C(CO)O2)cc1COCC(F)(F)F (stereo not given) | > 251 µM | > 251 µM |  |
| CN(CCC(N)CC(=O)NC1C=CC(n2ccc(N)nc2=O)OC1C(=O)O)C(=N)N (stereo not given) | > 200 µM | 31.6 µM | inactive |
| CCOP(=O)(CP(=O)(OCC)OCC)OCC.[Cl][Sn]([Cl])([c]1ccccc1)[c]1ccccc1 | > 11.5 µM | 0.603 µM |  |
| C1=CC(=[N+]2N=C(c3ccccc3)CC2c2ccccc2)C=CC1=C1SC(c2ccccc2)(c2ccccc2)c2ccccc21 (stereo not given) | > 200 µM | > 200 µM |  |
| COc1cc(N=Nc2ccccc2C(=O)O)cc(/C=N/NC(=O)c2cccnc2)c1O | > 12.3 µM | > 12.3 µM |  |
| CN=C1Nc2ccccc2C(=O)N2CSCC12 (stereo not given) | > 200 µM | > 200 µM |  |
| COC(=O)/C(C#N)=C/n1ccc(=O)[nH]c1=S | > 200 µM | > 200 µM |  |
| CNC(=O)N(C1=NCC(C)S1)c1ccc(C)c(C)c1 (stereo not given) |  |  | inactive |
| CCOC(=O)c1ccc(N2C(=O)/C(=C\OC)c3ccccc3C2=O)cc1 |  |  | inactive |

| Compound | EC50 | IC50 | outcome |
| --- | --- | --- | --- |
| CC(C)(C)[Si](C)(C)OCC1OC(n2ccc(=O)[nH]c2=O)C(O[Si](C)(C)C(C)(C)C)[C@]12O[C@@H]2CO (stereo not given in full) | > 200 µM | 13.2 µM |  |
| COC(=O)c1c(C#N)c(N)nc2c1CCC2 | > 200 µM | > 200 µM |  |
| CSc1nc(C#N)c(N)n1C | > 200 µM | > 200 µM |  |
| CC(C)N=C1CCCC1C(=S)SSC(=S)C1CCCC1=NC(C)C (stereo not given) | > 200 µM | 10.7 µM |  |
| Cc1nc(Nc2ccccc2Cl)sc1C(=O)CC(=O)C(N)=O | > 200 µM | > 200 µM |  |
| CC1(C)CNC[C@@](C)(O)C(=O)NC(C)(C)CNC[C@@](C)(O)C(=O)N1 | > 200 µM | > 200 µM |  |
| CC(C)(CO)CNc1nc(N)nc(Cl)c1/C=N/O | > 200 µM | 5.5 µM |  |
| Cc1ccc(S(=O)(=O)N/N=C2/C3CC4CCC2C4C3)cc1 (stereo not given) | > 200 µM | > 200 µM |  |
| CO[C@H]1C[C@H](O[C@H]2CC[C@]3(C=O)[C@H]4CC[C@]5(C)[C@@H](C6=CC(=O)OC6)CC[C@]5(O)[C@@H]4CC[C@]3(O)C2)O[C@H](C)[C@H]1O |  |  | inactive |
| N#CC(C#N)=C1NN=C(Cl)c2ccccc21 |  |  | inactive |
| CC(=O)Oc1c2c(cc3c1C(=O)NC1C3=CC(O)[C@@H](OC(C)=O)[C@H]1OC(C)=O)OCO2 (stereo not given in full) |  |  | inactive |
| CC1=CC(=Nc2cccc3c(N=C4C=C(C)C(=O)O4)cccc23)OC1=O | > 200 µM | 1.41 µM |  |
| CCOC(=O)c1sc2c(c1OC(=O)c1cccs1)c(=O)n(-c1ccccc1)c(=S)n2-c1ccccc1 | > 200 µM | 6.92 µM |  |
| Cc1ncc(CO)c(CO)c1OCC(O)CN1CCN(C(=O)c2ccccc2)CC1 (stereo not given) | > 200 µM | > 200 µM |  |
| COc1ccc(-c2nc(Sc3c([N+](=O)[O-])ncn3C)n[nH]2)cc1 | > 537 µM | 0.562 µM |  |
| CCN(CC)CC(=O)NC1c2ccccc2Oc2ccccc21 | > 219 µM | > 219 µM |  |
| Oc1ccc(O)c(CNc2ccc(C(O)C(F)(F)F)cc2)c1 (stereo not given) | > 200 µM | 18.6 µM |  |
| CCOC(=O)C(C)(C)/C=C\C(Cl)=C(Cl)Cl | > 200 µM | 117 µM |  |
| Nc1ccc2c(c1)C(=O)N(OS(=O)(=O)c1ccccc1)C2=O |  |  | inactive |
| COc1cc(/C=C/c2ccnc3ccccc23)ccc1N(C)C | > 200 µM | 2.19 µM |  |
| C1CCC2(CC1)O[C@@H]1[C@@H](O2)[C@@H](O[C@H]2O[C@@H]3COC4(CCCCC4)O[C@H]3[C@@H]3OC4(CCCCC4)O[C@@H]23)O[C@@H]2COC3(CCCCC3)O[C@@H]12 | > 100 µM | > 100 µM |  |
| CN(C)c1ccc2c(c1)C(=O)N(OS(=O)(=O)c1ccccc1)C2=O |  |  | inactive |

| Compound | EC50 | IC50 | outcome |
| --- | --- | --- | --- |
| COC(=O)C1CSC(c2csc(CCN)n2)=N1 (stereo not given) |  |  | inactive |
| Cc1ccc(Nc2cc(=O)[nH]c(=S)[nH]2)cc1 | > 200 µM | > 200 µM |  |
| O=C1C=CC(c2ccccc2)(c2ccccc2)O1 | > 200 µM | 151 µM |  |
| O=C1/C(=C/c2cccc(F)c2)CCCc2ccccc21 | > 200 µM | 19.5 µM |  |
| CC(C)(C)C1=C(Br)C(Br)(C(C)(C)C)OP1(=O)c1ccccc1 (stereo not given) | > 200 µM | > 200 µM |  |
| COc1cc2c(cc1OC)C[N+]1(C)CCc3cc(OC)c(OC)cc3C1C2 (stereo not given) | > 501 µM | > 501 µM |  |
| Cc1cc(N(C)C)c(C=O)c(C)c1C=O | > 1230 µM | 93.3 µM |  |
| O=c1[nH]c2cc([N+](=O)[O-])ccc2nc1/C(=N/Nc1ccccc1)C(O)c1ccccc1Cl (stereo not given) | > 363 µM | 355 µM |  |
| Cc1ccc(-c2nc3cc(N4CCN(C)CC4)c(F)cc3[nH]2)cc1 | > 200 µM | 26.3 µM |  |
| OC1(c2ccccc2)c2ccccc2Oc2ccccc21 | > 200 µM | 17.4 µM |  |
| Nc1nn2cc3c(nc2c1N=Nc1ccccc1)CCCCC3 | > 200 µM | > 200 µM |  |
| COc1cc2c3cc1Oc1c(OC)c(OC)cc4c1C(Cc1ccc(cc1)Oc1cc(ccc1O)CC3N(C)CC2)N(C)CC4 (stereo not given) | > 22.4 µM | > 22.4 µM | inactive |
| CC(=O)CCC(=O)CC(O)(C(F)(F)F)C(F)(F)F | > 200 µM | 33.1 µM |  |
| CC1=NC(=O)CNN1C1=NNC2(C(=O)N1)c1ccccc1-c1ccccc12 | > 100 µM | > 100 µM |  |
| Cc1cc(=O)c2c([nH]1)c1c(c3[nH]c(C)cc(=O)c32)Oc2ccccc2O1 | > 129 µM | 93.3 µM |  |
| C=C(C)[C@@H]1CC[C@]2(COC(=O)CC(C)CC(=O)O)CC[C@]3(C)[C@H](CC[C@@H]4[C@@]5(C)CC[C@H](OC(=O)CC(C)CC(=O)O)C(C)(C)[C@@H]5CC[C@]43C)[C@@H]12 (stereo not given in full) | > 200 µM | 19.1 µM |  |
| CCC(=O)NC1=CC(=O)C(=O)c2cccnc21 |  |  | inactive |
| C=CCOC(=O)C1CC2OC2CC1C(=O)OCC=C (stereo not given) | > 200 µM | > 200 µM |  |
| COC(=O)c1cccc2cccc(C(=O)Nc3ccc(Cl)cc3)c12 | > 11.2 µM | > 11.2 µM |  |
| C/C(C=O)=C\c1cccc(F)c1 | > 158 µM | > 158 µM |  |
| COC(=O)CCC(=O)c1ccc2c(c1)CCC2 | > 200 µM | > 200 µM |  |
